For experiment [1] the following is noted: versus CPT-11; cited from earlier work.
Experiment [2] deals with T1, human beta-D-glucuronidase (Homo sapiens, UniProt P08236).
T1 sequence (P08236 23-651): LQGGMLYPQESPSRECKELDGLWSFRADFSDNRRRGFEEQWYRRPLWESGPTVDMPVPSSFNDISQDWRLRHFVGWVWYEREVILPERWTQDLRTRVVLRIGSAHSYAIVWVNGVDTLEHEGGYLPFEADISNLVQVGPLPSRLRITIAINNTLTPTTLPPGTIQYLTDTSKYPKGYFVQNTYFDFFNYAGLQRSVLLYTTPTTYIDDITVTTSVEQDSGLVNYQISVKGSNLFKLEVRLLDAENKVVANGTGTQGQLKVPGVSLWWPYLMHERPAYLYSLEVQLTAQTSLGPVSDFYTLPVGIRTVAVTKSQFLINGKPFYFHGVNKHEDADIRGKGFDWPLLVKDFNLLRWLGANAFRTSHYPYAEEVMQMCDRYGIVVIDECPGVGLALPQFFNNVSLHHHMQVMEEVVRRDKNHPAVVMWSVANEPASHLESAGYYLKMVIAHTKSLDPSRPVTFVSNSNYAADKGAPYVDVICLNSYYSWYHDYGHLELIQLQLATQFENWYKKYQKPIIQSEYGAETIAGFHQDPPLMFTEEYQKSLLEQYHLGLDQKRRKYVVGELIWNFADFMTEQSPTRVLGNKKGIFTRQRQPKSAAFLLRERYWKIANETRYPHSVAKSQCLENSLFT
Conditions: Arcamone, Cancer Res. 45:5995 (1985); cited from earlier work.

In experiment [3] the test system is lymphoma. The experiment is described as follows: Therapy of lymphoma in a human patient. It is filed as in vivo. Conditions: 10 mg i.v. on each of 4 days after anti-lymphoma IgG-glucuronidase conjugate. On the procedure: A human patient suffering from lymphoma is infused intravenously with a sterile, pyrogen-free PBS solution containing 5 mg of an anti-lymphoma IgG-glucuronidase conjugate prepared according to the example above, and labeled with I-131. […] The patient is then infused intravenously with a sterile, pyrogen-free PBS solution containing 10 mg of epirubicin glucuronide, prepared according to the example above, on each of the next 4 days.

In the case of `CCc1c2c(nc3ccc(O)cc13)-c1cc3c(c(=O)n1C2)COC(=O)[C@]3(O)CC` [SN-38], in experiment [1], the “toxicity relative to CPT-11” value is listed as “at least one hundred-fold more toxic”.

Turning to `COc1cccc2c1C(=O)c1c(O)c3c(c(O)c1C2=O)C[C@@](O)(C(=O)CO)C[C@@H]3O[C@H]1C[C@H](N)[C@@H](O)[C@H](C)O1` [epirubicin], in experiment [2], the “substrate for human beta-D-glucuronidase” value was “has been shown to be a substrate”.

On to `COc1cccc2c1C(=O)c1c(O)c3c(c(O)c1C2=O)C[C@@](O)(C(=O)CO)C[C@@H]3O[C@H]1C[C@H](N)[C@@H](O[C@@H]2O[C@H](C(=O)O)[C@@H](O)[C@H](O)[C@H]2O)[C@H](C)O1` [epirubicin glucuronide], for which the “reduction in lymphoma by radioimmunodetection” value in experiment [3] is “significant reduction in the lymphoma”.

Values taken from patent US20030068322A1, “Methods of antibody-directed enzyme-prodrug therapy” (IMMUNOMEDICS, INC., priority 1988, published 2003).
